Read-outs that look alike come from different tables or passages of the source.
Tests used:
[1] = test system: MCF-7 (breast adenocarcinoma); assay: MCF-7 cell growth inhibition (MTT), incl. FOH/GGOH rescue; assay type: cell-based, human; settings: for rescue from growth inhibition by geranylgeraniol (GGOH): GGOH 20 μM
Excerpt: (§1) Cell Growth Inhibition Assays. […] A broth microdilution method was used to determine IC50 values for growth inhibition by each bisphosphonate. […] NBPs were typically initially dissolved in H2O (0.01 M) while NNBPs were typically dissolved in DMSO (0.01 M).
GraphPad PRISM® version 4.0 software for windows (GraphPad Software Inc., San Diego, Calif., www.graphpad.com) was used to fit the data to a rectangular hyperbolic function: I=(ImaxC)/(IC50+C);
For the “rescue” experiments, stock solutions of FOH or GGOH were prepared (in ethanol) and the requisite amounts added to the incubation media to produce a fixed 20 μM concentration.

human FPPS = target: T1, human FPPS (Homo sapiens, UniProt P14324); assay: human FPPS enzyme inhibition; assay type: biochemical
T1 construct: made in house
T1 sequence (P14324 1-419): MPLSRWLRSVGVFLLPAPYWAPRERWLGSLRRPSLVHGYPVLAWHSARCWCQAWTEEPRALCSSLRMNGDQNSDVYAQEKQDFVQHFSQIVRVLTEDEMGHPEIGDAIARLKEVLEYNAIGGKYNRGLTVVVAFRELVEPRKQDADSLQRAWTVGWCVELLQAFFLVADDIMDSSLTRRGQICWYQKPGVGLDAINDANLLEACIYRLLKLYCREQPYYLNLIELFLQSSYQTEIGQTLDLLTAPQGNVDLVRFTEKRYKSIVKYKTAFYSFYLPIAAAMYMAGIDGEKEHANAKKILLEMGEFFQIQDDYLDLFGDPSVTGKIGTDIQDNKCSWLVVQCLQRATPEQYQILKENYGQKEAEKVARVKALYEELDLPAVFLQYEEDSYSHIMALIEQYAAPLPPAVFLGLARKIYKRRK
Excerpt: (§2) To test our polypharmaceutical hypothesis, we expressed three enzymes: human FPPS, GGPPS and DPPS, and tested each for their inhibition by a series of bisphosphonates.

Vγ2Vδ2 T cells = assay: γδ T cell activation (TNF-α release and proliferation); assay type: cell-based, human
Protocol: γδ T Cell Assays. Vγ2Vδ2 T cell TNF-α release and proliferation were performed basically as described previously^1. Briefly, to measure bioactivity for Vγ2Vδ2 T cells, the CD4^+ JN.24, CD4^+ HF.2, CD8αα^+ 12G12, or the CD4^−8^− HD.108 Vγ2Vδ2 T cell clones were stimulated with phosphoantigens in the presence of CP.EBV (an EBV transformed B cell line) for CD4^+ clones or Va-2 (a transformed fibroblast) for CD8αα^+ and CD4^−8^− clones. CP.EBV and Va-2 were fixed with 0.05% glutaraldehyde (EM grade, Sigma, Mo.) for use as APCs. […] Curve fitting minima for each experiment (e.g. TNF-α release from JN.24 cells) were determined using the Global Fitting technique, as implemented in Prism 4.0. Curve fitting maxima were optimized for each individual compound without the use of any constraints.

[2] = test system: SF-268 (central nervous system glioblastoma); assay: SF-268 cell growth inhibition (MTT); assay type: cell-based, human; settings: Table 1, experimental
Excerpt: as §1
(§3) GraphPad PRISM® version 4.0 software for windows (GraphPad Software Inc., San Diego, Calif., www.graphpad.com) was used to fit the data to a rectangular hyperbolic function: I=(ImaxC)/(IC50+C); […]

[3] = test system: NCI-H460 (lung large cell); assay: NCI-H460 cell growth inhibition (MTT); assay type: cell-based, human; settings: Table 1, experimental
Excerpt: as §1, §3

[4] = Adsorption onto bone in vivo
Excerpt: (§4) A potential drawback to the use of bisphosphonates in treating non-bone resorption diseases is expected to be that they would be rapidly adsorbed onto bone. […]

human DPPS = target: T2, human DPPS (Homo sapiens, UniProt Q5T2R2); assay: human DPPS enzyme inhibition; assay type: biochemical
T2 construct: made in house
T2 sequence (Q5T2R2 1-415): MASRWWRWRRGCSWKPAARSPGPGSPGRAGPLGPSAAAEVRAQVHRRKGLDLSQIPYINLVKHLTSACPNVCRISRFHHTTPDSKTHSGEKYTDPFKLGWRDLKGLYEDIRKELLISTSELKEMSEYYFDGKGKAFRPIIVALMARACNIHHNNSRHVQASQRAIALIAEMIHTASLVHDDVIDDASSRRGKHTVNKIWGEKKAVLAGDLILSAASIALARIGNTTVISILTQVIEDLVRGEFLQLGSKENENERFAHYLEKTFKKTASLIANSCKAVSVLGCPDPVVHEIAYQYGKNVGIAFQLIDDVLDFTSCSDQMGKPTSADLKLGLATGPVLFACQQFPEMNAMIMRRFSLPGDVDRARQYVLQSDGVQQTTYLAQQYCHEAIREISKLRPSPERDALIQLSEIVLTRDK
T2 sequence (Q86YH6 1-399 partner): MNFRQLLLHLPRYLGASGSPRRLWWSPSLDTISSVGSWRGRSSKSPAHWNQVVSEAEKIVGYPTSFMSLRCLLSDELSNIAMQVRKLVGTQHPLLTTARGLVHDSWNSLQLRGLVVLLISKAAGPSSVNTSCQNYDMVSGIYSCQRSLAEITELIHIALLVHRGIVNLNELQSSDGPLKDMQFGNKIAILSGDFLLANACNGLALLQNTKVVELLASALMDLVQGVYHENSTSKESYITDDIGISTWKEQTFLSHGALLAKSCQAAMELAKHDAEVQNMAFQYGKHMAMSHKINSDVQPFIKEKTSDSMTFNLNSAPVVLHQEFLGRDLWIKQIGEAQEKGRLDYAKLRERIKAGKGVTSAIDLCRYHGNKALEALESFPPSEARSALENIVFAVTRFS
Excerpt: as §2

bone resorption = assay: Bone resorption IC50
Excerpt: as §4

SK-ES-1 sarcoma cells = assay: SK-ES-1 sarcoma mouse xenograft; settings: daily intraperitoneal 5 μg, athymic nude mice, SK-ES-1 xenograft
MDA-MB-231 cells = assay: Matrigel invasion assay; assay type: cell-based, human
Excerpt: Tumor cell invasiveness and in vivo results. […] .

T. brucei FPPS = T. brucei FPPS inhibition; assay type: biochemical, Trypanosoma brucei; settings: Table 9
[5] = Homo sapiens, MCF7, FIG. 2A, read-out: IC50, MCF-7 tumor cell growth inhibition

Compound	rescue from growth inhibition by geranylgeraniol (GGOH) [1]	MCF-7 pIC50 (M) ([1]; Table 1, experimental)	FPPS pKi (M) (human FPPS; Table 1, experimental)	γδ T cell activation (Vγ2Vδ2 T cells)	SF-268 pIC50 (M) [2]	NCI-H460 pIC50 (M) [3]	adsorption onto bone in vivo [4]	effect on DPPS (human DPPS)	DPPS pKi (human DPPS; Table 1, experimental)	IC50 [1, 5]	IC50 (bone resorption)	reduction in tumor cell growth (SK-ES-1 sarcoma cells)	further results
O=P(O)(O)C(O)(Cc1cccc(-c2cccc(NS(=O)(=O)c3ccc4ccccc4c3)c2)c1)P(=O)(O)O [BPH-675, 1-Hydroxy-2-[3′-(Naphthalene-2-sulfonylamino)-biphenyl-3-yl]ethylidene-1,1-bisphosphonic acid]	essentially fully rescued	5.2 M	5.9 M	no effect at all	5.2 M	5.3 M	only very weakly adsorbed	no effect	6.5	–	–	–	IC50 ([1]; FIG. 2A, read-out: IC50, MCF-7 tumor cell growth inhibition): 5000 nM; effect on FPPS (human FPPS): no effect
O=P(O)(O)C(O)(Cn1ccnc1)P(=O)(O)O [zoledronate, reference compound]	–	–	–	–	–	–	–	inhibited	–	~15000 nM	~70 nM	significant (p<0.01) reduction in tumor cell growth versus control	IC50 (MDA-MB-231 cells; Homo sapiens): ~40000 nM; IC50 (human DPPS): ~5000 nM
CCCCCCCCCCOc1ccc[n+](CC(P(=O)([O-])O)P(=O)(O)O)c1 (centres unmarked) [BPH-715]	only a partial rescue	–	–	potent activity	–	–	only very weakly adsorbed	–	–	~50 nM	~800 nM	even more pronounced (p=0.032 versus zoledronate)	rescue from growth inhibition by addition of farnesol ([1]; FOH fixed 20 μM): no rescue; IC50 ([1]; Homo sapiens, MCF7, Table 1, experimental, read-out: MCF-7 pIC50 (converted)): 200 nM; IC50 ([1]; Homo sapiens, MCF7, Table 2, -log10(value, M), read-out: MCF-7 Cell pIC50 (converted)): 107 nM; Ki (human FPPS; Table 1, experimental, read-out: FPPS pKi (converted)): 50.1 nM; EC50 (Vγ2Vδ2 T cells; Homo sapiens, T-cell, Table 2, -log10(value, M), read-out: γδ T Cell Avg pED50 (converted)): 891 nM; IC50 ([2]; Homo sapiens, SF-268, read-out: SF-268 pIC50 (converted)): 100 nM; IC50 ([3]; Homo sapiens, NCI-H460, read-out: NCI-H460 pIC50 (converted)): 63.1 nM; Ki (human DPPS; Table 1, experimental, read-out: DPPS_pKi (converted)): 5.01 nM
N=C(N)NCC(O)(P(=O)(O)O)P(=O)(O)O [BPH-678]	–	4.7 M	7.9 M	–	4.6 M	4.7 M	–	–	7.4	–	–	–	MCF-7 Cell pIC50 (M) ([1]; Table 2, -log10(value, M)): 5.37 M; IC50 (human FPPS; Table 9, read-out: H. sapiens FPPS IC50): 1250 nM; γδ T Cell Avg pED50 (M) (Vγ2Vδ2 T cells; Table 2, -log10(value, M)): 4.22 M; IC50 (T. brucei FPPS): 25600 nM
CCCCCCCCCCCCOc1ccc[n+](CC(P(=O)(O)O)P(=O)(O)O)c1 [BPH-716]	–	–	–	–	–	–	–	–	–	–	–	–	γδ T cell activation EC50, times more active than Phosphostim (Vγ2Vδ2 T cells; versus Phosphostim (bromohydrin of IPP)): ~2 ×; γδ T cell activation, times more active than the most potent conventional bisphosphonates (Vγ2Vδ2 T cells; versus most potent conventional bisphosphonates): ~100 ×; IC50 (MDA-MB-231 cells): ~30 nM; fold more inhibitory than zoledronate, Matrigel invasion (MDA-MB-231 cells; versus zoledronate): about 1000 fold

From patent US8012949B2, “Bisphosphonate compounds and methods with enhanced potency for multiple targets including FPPS, GGPPS, and DPPS” (The Board of Trustees of the University of Illinois, priority 2004, dated 2011)
